Source: US5741917A, “Process for the preparation of acyloxyalkanesulfonates having improved properties” (Hoechst Aktiengesellschaft, priority 1995, dated 1998)

Details: deionized water

Question: Which “Water solubility (maximum concentration giving a clear solution)” value does the source give for “sodium C13 to C15 -acylisethionate [Example 4]” here?
Answer: Its value is 10%.
